Key:
BALB/c mice = assay: Murine model of oxazolone-induced ear edema; type: in vivo; details: topical, positive control
Description: This is a contract research performed by Washington Biotechnology Inc., Columbia, Md., protocol 1041. On day 0, 42 BALB/c mice (female, Harlan Sprague-Dawley, 5-6 weeks) were shaved on the ventral surface of the right ear. 100 μl of the 5% oxazolone solution (Sigma) was then applied to the saved ear. The treated mice were then returned to the cage and kept for additional 6 days. On day 7, the mice were weighed and dosed orally with 10 ml/kg water or DA021 at either 30 mg/kg or 100 mg/kg or topically applied on both sides of both ears with 25 μl betamethasone. Thirty minutes after oral dosing, 5 μl of 3% oxazolone was applied to both sides of the right ear and 5 μl of acetone was applied to both sides of the contralateral ear. Twenty-four hours after 3% oxazolone/acetone application, the mice were euthanized, the ears removed and weighed.
To evaluate the efficacy and potency of DA021 in acute inflammation, an oxazolone-induced ear edema model was carried out in mice. Oxazolone-induced ear edema model is a commonly used skin inflammatory animal model. Oxazolone (OA) is an allergen that induces immunological responses that lead to surface edema. […] Betamethasone (BMS) which was used as a positive control, is a corticosteroid that is used as an anti-itching cream and other anti-inflammatory remedies.
Mice were then treated with betamethasone (BMS, mg, topical) or DA021 (mg/kg, p.o.) and the ears were removed and weighed. N=10 per group, significance (p-value) was calculated versus OA+vehicle using the Student's T-test, *=P≦1×10^−7, #=P≦1×10^−12.

cortical neurons = assay: Cortical neuron survival assay against amyloid beta peptide excitotoxicity (MTT); type: cell-based, Sprague-Dawley rats; design: key: black bars represent compounds with strong protective effect; striped bars represent compounds with moderate effect; light-dotted bars represent compounds without or with effect less than 25%; details: compounds 2 hours prior to co-treatment with Aβ25-35 (10 μM) 24 hours
Description: FIG. 14. Derivatives of DA001 protect the cortical neurons from Aβ25-35 excitotoxicity. Cortical neurons were incubated with compounds (at various [μM]) derived from of DA001 2 hours prior to co-treatment with Aβ25-35 (10 μM) for 24 hours. 3-(4,5-Dimethylthiazol-2-yl)-2,5-diphenyltetrazolium bromide (MTT) assay was performed 24 hours after Aβ25-35 treatment. Data are expressed as mean fold change±s.e.m. compared to solvent control (DMSO). Dark-dotted bar represents data without addition of Aβ25-35, open bar represents solvent control, black bars represent compounds with strong protective effect while striped bars represent compounds with moderate effect, light-dotted bars represent compounds without or with effect less than 25%. *=P<0.05, **=P<0.005.
Cortical neurons were prepared from embryonic day 18 Sprague-Dawley rats. After the cortices had been removed from the brain, isolated cells were plated onto Poly d-Lysine (PDL) (P0899, Sigma)-coated 48 well plates (150687, NUNC) at a density of 1×10^5 cell per well using Neurobasal Medium (NB) (21103-049, Gibco) with B27 supplement (17504-044, Gibco), penicillin/streptomycin (15140, Gibco) and 1 mM L-glutamine (25030, Gibco). The cell culture was incubated at 37° C. in a humidified atmosphere of 5% CO2 in air. Medium was changed to growth medium (Neurobasal Medium with penicillin/streptomycin and B27 supplement) after 3 hours. Half medium was changed with growth medium every 2-3 days to maintain the cells until day 7 in vitro (7 DIV). Serial dilutions of samples were prepared in growth medium and DMSO was used as vehicle control. For pre-treating part, half of the medium was removed from wells, and equal amount of diluted samples were replaced. Cells were then incubated for 2 hours at 37° C. in a humidified atmosphere of 5% CO2 in air. Cortical neurons were then incubated with DA001 derived compounds (at various concentrations in [μM]) together with Aβ25-35 (10 μM, Sigma) for 24 hours. Quantification of living cells are measured by MTT (3-(4,5-Dimethylthiazol-2-yl)-2,5-diphenyltetrazolium bromide, USB) assay performed 24 hours after Aβ25-35 treatment. Yellow MTT is reduced to purple formazan in the mitochondria of living cells. A solubilization solution [10% SDS (sodium dodecyl sulfate)/0.01 M hydrochloric acid] is added to dissolve the insoluble purple formazan product into a colored solution which was then quantified at wavelength 570 nm using a spectrophotometer (DYNEX Technologies).
A total of 90 derivatives of DA001 were synthesized, and their effect on cortical neurons survival against amyloid beta peptide (Aβ25-35) excitotoxicity was examined. […] Compounds with strong protective effect are DA002, DA005, DA007, DA016, DA018, DA019, DA042, DA044, DA060 and DA072.

[1] = tested on: C57BL/6 mice immunized with MOG; assay: Experimental autoimmune encephalomyelitis (EAE) behavioral scores; type: in vivo; details: 100 mg/kg oral daily from day of immunization
Description: FIG. 15 illustrates that DA001 improves the behavioral scores of mice with experimental autoimmune encephalomyelitis. C57BL/6 mice were immunized subcutaneously at both sides of their hind limbs with myelin oligodendrocyte glycoprotein (MOG)/Complete Freund's Adjuvant (CFA) kit (Hooke Laboratories) and performed as indicated in the manufacturer's instruction. Albumin/CFA kit (Hooke Laboratories) were used as an immunization control. Oral administration of DA001 at 100 mg/kg was given daily starting from the day of immunization. The vehicle (water) was given to mice injected with MOG or albumin daily via oral administration. Animals were weighed and monitored daily and behavioral impairment was quantified based on the clinical scale. The graph presented here is a composite of four separate EAE trials. **=p≦0.01.
FIG. 16 illustrates that DA002 improves the behavioral scores of mice with experimental autoimmune encephalomyelitis. C57BL/6 mice were immunized subcutaneously at both sides of their hind limbs with myelin oligodendrocyte glycoprotein (MOG)/Complete Freund's Adjuvant (CFA) kit (Hooke Laboratories) and performed as indicated in the manufacturer's instruction. […] Animals were weighed and monitored daily and behavioral impairment was quantified based on the clinical scale. *=p≦0.05.
C57BL/6 mice were immunized subcutaneously at both sides of their hind limbs with myelin oligodendrocyte glycoprotein (MOG)/Complete Freund's Adjuvant (CFA) kit (Hooke Laboratories) and performed as in manufacturer's instruction. […] Animals were weighed and monitored daily and behavioral impairment was quantified based on the clinical scale. […]
On day 0, six-week old male C57BL/6 mice (Hong Kong University of Science and Technology, Animal Care facility) were immunized with 100 μg of myelin oligodendrocyte glycoprotein peptide (MOG35-55)/complete Freund's Adjuvant (CFA) emulsion kit (Hooke Laboratories) was injected subcutaneously at both sides of the tail base. […] The animals were also weighed and the neurological impairment was quantified daily based on the previously published criteria. […]

[2] = tested on: LPS-induced TNF-α in serum; assay: Murine model of lipopolysaccharide-induced cytokine production; type: in vivo, Swiss-Webster mice; details: 10 mg/kg orally, positive control
Description: This is a contract research performed by Washington Biotechnology Inc., Columbia, Md., protocol 1077. Swiss-Webster mice (female, Harlan Sprague-Dawley, 5-6 weeks) were weighed and dosed orally with 10 ml/kg water, prednisolone at 10 mg/kg, or DA021 at 30 mg/kg or 100 mg/kg. Thirty minutes after oral dosing, lipopolysaccharides (LPS) at 2 mL/kg was injected. Two hours after LPS injection, the mice were anesthetized and exsanguinated into serum separator micro-container tubes. The blood was processed to serum. The serum samples were assayed for tumor necrosis factor-α (TNFα) concentration by ELISA (Pierce) according to the manufacturer's protocol.
Evaluation of the efficacy and potency of orally administered DA021 to inhibit the lipopolysaccharide (LPS)-induced release of tumor necrosis factor-α (TNF-α) in mice was carried out. LPS is a widely used endotoxin, isolated from the bacteria, E. coli in inducing acute inflammation in an organism. Prednisolone is a synthetic corticosteroid drug that is commonly used in inflammatory reactions. It is a broad range immunosuppressant. Based on FIG. 29, there was a marked increase in the amount of TNF-α in serum upon LPS treatment in mice.
Two hours after LPS injection, the serum was collected from the mice. The serum samples were assayed for tumor necrosis factor-α (TNFα) concentration by ELISA (Pierce) according to the manufacturer's protocol. N=10, significance was calculated versus LPS+vehicle using the Student's T-test, *=p≦0.05, #=p≦1×10^−4.

Structure (SMILES)	protective effect against Aβ25-35 excitotoxicity (cortical neurons)	other results
C[C@H]1C[C@H]2[C@@H]3CCC4=CC(=O)C=C[C@]4(C)[C@@]3(F)[C@@H](O)C[C@]2(C)[C@@]1(O)C(=O)CO [Betamethasone, reference compound]		Change in Ear Weight (mg), Average (BALB/c mice): 17.4 mg; Change in Ear Weight, % Inhibition (BALB/c mice): 75.4%
C=C(C)[C@@H]1CC[C@]2(C(=O)O)CC[C@]3(C)C(CCC4[C@@]5(C)CC[C@H](O)[C@@](C)(CO)[C@@H]5CC[C@]43C)C12 (stereo partly shown) [DA002]	strong	EAE scores vs vehicle-treated EAE mice [1]: significant decrease in the EAE scores
C=C(C)[C@@H]1CC[C@]2(C(=O)O)CC[C@]3(C)C(CCC4[C@@]5(C)CC[C@H](OC(C)=O)[C@@](C)(CO)[C@@H]5CC[C@]43C)C12 (stereo partly shown) [DA007]	strong	
C=C(C)[C@@H]1CC[C@]2(C(=O)O)CC[C@]3(C)C(CCC4[C@@]5(C)CCC(=O)[C@@](C)(COC(C)=O)[C@@H]5CC[C@]43C)C12 (stereo partly shown) [DA016]	strong	
C=C(C)[C@@H]1CC[C@]2(C(=O)O)CC[C@]3(C)C(CCC4[C@@]5(C)CCC(=O)[C@@](C)(CO)[C@@H]5CC[C@]43C)C12 (stereo partly shown) [DA018]	strong	
C=C(C)[C@@H]1CC[C@]2(C(=O)O)CC[C@]3(C)C(CCC4[C@@]5(C)CC/C(=N\O)[C@@](C)(CO)[C@@H]5CC[C@]43C)C12 (stereo partly shown) [DA019]	strong	
C=C(C)[C@@H]1CC[C@]2(C(=O)NCc3ccccc3)CC[C@]3(C)C(CCC4[C@@]5(C)CC[C@H](O)[C@@](C)(CO)[C@@H]5CC[C@]43C)C12 (stereo partly shown) [DA042]	strong	
C=C(C)[C@@H]1CC[C@]2(C(=O)O)CC[C@]3(C)C(CCC4[C@@]5(C)CC[C@H](O[C@@H]6OC[C@H](OC(C)=O)[C@H](OC(C)=O)[C@H]6O[C@@H]6O[C@@H](C)[C@H](OC(C)=O)[C@@H](OC(C)=O)[C@H]6OC(C)=O)[C@@](C)(COC(C)=O)[C@@H]5CC[C@]43C)C12 (stereo partly shown) [DA044]	strong	
C=C(COC(C)=O)[C@@H]1CC[C@]2(C(=O)O)CC[C@]3(C)C(CC[C@@H]4[C@@]5(C)CC[C@H](OC(C)=O)[C@@](C)(COC(C)=O)[C@@H]5CC[C@]43C)[C@@H]12 (stereo partly shown) [DA060, 3,23,30-Triacetoxy-betulinic acid]	strong	
C=C(CNCc1ccccc1)[C@@H]1CC[C@]2(C(=O)O)CC[C@]3(C)C(CC[C@@H]4[C@@]5(C)CC[C@H](OC(C)=O)[C@@](C)(COC(C)=O)[C@@H]5CC[C@]43C)[C@@H]12 (stereo partly shown) [DA072, 30-N-Benzylamino-3,23-diacetoxy-betulinic acid]	strong	
C[C@]12C=CC(=O)C=C1CC[C@@H]1[C@@H]2[C@@H](O)C[C@@]2(C)[C@H]1CC[C@]2(O)C(=O)CO [Prednisolone, reference compound]		LPS-induced TNF-α level [2]: dramatically decreased

— patent publication US9029414B2, “Triterpenoid compounds and methods of use thereof” (Biotechnology Research Corporation, priority 2008, dated 2015)
